Measurements taken from PubChem BioAssay (NCI).
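1) Cells in 96-well plates. 2) Compound, 48 h, 5 concentrations. 3) Linear interpolation between surrounding doses. 4) Unreached endpoint = highest concentration. TGI denotes the concentration required for complete inhibition of growth.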

Key:
Test in all cases: NCI anticancer screen, dose series, 48 h
A498 renal = test system: A498 renal
CAKI-1 renal = test system: CAKI-1 renal
HCT-15 colon = test system: HCT-15 colon
MOLT-4 leukemia = test system: MOLT-4 leukemia
RPMI-8226 leukemia = test system: RPMI-8226 leukemia
SW-620 colon = test system: SW-620 colon
UACC-257 melanoma = test system: UACC-257 melanoma
HT29 colon = test system: HT29 colon

Row | Structure (SMILES) | TGI (A498 renal) [µM] | TGI (CAKI-1 renal) [µM] | TGI (HCT-15 colon) [µM] | TGI (MOLT-4 leukemia) [µM] | TGI (RPMI-8226 leukemia) [µM] | TGI (SW-620 colon) [µM] | TGI (UACC-257 melanoma) [µM] | TGI (HT29 colon) [µM]
1 | Cc1n[nH]c(=O)n1/N=C/c1ccc(Cl)cc1 | > 100 | > 100 | > 100 | > 100 | > 100 | > 100 | > 100 | –
2 | COC(=O)c1c(C)cccc1C1CN=NC12Cc1ccc(C)cc1C2=O (stereo not drawn) | > 100 | > 100 | > 100 | 84.7 | > 100 | > 100 | > 100 | > 100
3 | C1CN(c2nc3c(nnc4nc(N5CCOCC5)sc43)s2)CCO1 | > 100 | > 100 | > 100 | > 100 | > 100 | > 100 | > 100 | > 100
4 | CCOC(=O)C1(C/C=C/CBr)Cc2ccccc2C1=O (stereo not drawn) | 32.6 | 7.27 | 5.73 | 8.31 | 4.88 | 7.06 | 22.6 | 11.8
5 | c1csc(-c2ccc(-c3cccc4nsnc34)s2)c1 | > 100 | > 100 | > 100 | 39.2 | > 100 | > 100 | > 100 | –
6 | CN(C)C(=O)O/N=C1/C(c2c(O)[nH]c3ccccc23)=Nc2ccccc21 | 18.1 | 72.6 | > 100 | 41.5 | > 100 | > 100 | > 100 | > 100
7 | COC(=O)C([C@H](NC1(c2ccccc2)c2ccccc2-c2ccccc21)C(=O)OC)N(NC(=O)OCc1ccccc1)C(=O)OCc1ccccc1 (mixture of isomers) | > 100 | > 100 | > 100 | > 100 | > 100 | > 100 | > 100 | > 100
8 | N#Cc1c(N2CCCC2)ncn(-c2ccccc2)c1=O | > 100 | > 100 | > 100 | > 100 | > 100 | > 100 | > 100 | > 100
9 | C=CC1(C)CCC2C(=CCC3C2(C)CC(O)C(O)C3(C)COC2OC(C(=O)O)C(O)C(O)C2O)C1 (stereo not drawn) (tested in a mixture with another compound) | > 100 | > 100 | > 100 | > 100 | > 100 | > 100 | > 100 | > 100
10 | COC(=O)C1SC(SC)=NC12c1ccccc1Nc1ccccc12 (stereo not drawn) | > 100 | > 100 | > 100 | 71.1 | 49.4 | > 100 | 84.6 | > 100
11 | C[C@@H](NC(=O)[C@@H]1C[C@]1(C)COC(=O)c1cc([N+](=O)[O-])cc([N+](=O)[O-])c1)c1cccc2ccccc12 | > 100 | > 100 | > 100 | > 100 | > 100 | > 100 | > 100 | > 100
12 | C#CCNC(CS)C(=O)O (stereo not drawn) | > 100 | > 100 | > 100 | > 100 | > 100 | > 100 | > 100 | > 100
13 | Cc1ccc(Cl)c2[nH]c(-c3ccccc3)cc(=O)c12 | > 100 | – | > 100 | > 100 | > 100 | > 100 | > 100 | > 100
14 | COc1ccc2cc(NC(=O)N/N=C\c3ccc([N+](=O)[O-])cc3)ccc2c1 | > 100 | > 100 | > 100 | > 100 | > 100 | > 100 | > 100 | > 100
15 | C=C1C(=O)O[C@@H]2C(=O)[C@@H](C)CCC/C(C)=C/CC[C@@]3(C)O[C@@H]3C[C@@H]12 | > 100 | 37.5 | 44 | > 100 | 54.1 | 43.4 | > 100 | 31.1
16 | CC(=O)O[C@@H]1[C@H](C(C)C)[C@@H](OC(C)=O)C/C(C)=C/CC[C@]2(C)O[C@@H]12 | > 100 | > 100 | > 100 | > 100 | > 100 | > 100 | > 100 | > 100
17 | C=CCN1C[C@H](C)N([C@H](c2ccc(C(=O)NC(CC)CC)cc2)c2cccc(OC)c2)C[C@H]1C | 63.3 | 65.1 | > 100 | > 100 | – | > 100 | 70.7 | 61.1
18 | CC(C)(C)N1CSC(=S)N(Cc2ccco2)C1 | 26.7 | 12.4 | 10.6 | 5.72 | 0.697 | 11.9 | 25 | 13.8
19 | COc1ccc(N/N=C2\CCOc3ccc(C)cc3C2=O)cc1 | > 100 | > 100 | 48.7 | 85.4 | 84.1 | > 100 | 54.6 | 61.1
20 | CN1CCc2cc(N)cc3c2C1Cc1ccc(O)c(O)c1-3 (stereo not drawn) | > 100 | > 100 | > 100 | 39.9 | 66.4 | > 100 | 52.9 | > 100
21 | Nn1c(-c2ccccc2)nn(C(=O)c2ccccc2)c1=O | > 100 | – | > 100 | > 100 | > 100 | > 100 | > 100 | > 100
22 | Cc1nc2n(c1/C=C1/C(=O)Nc3cccc(Cl)c31)CCS2 | > 100 | > 100 | > 100 | > 100 | > 100 | > 100 | > 100 | > 100
23 | CC(C)(C)OC(=O)NCCCCC1NC(=O)[C@@H]2Cc3c([nH]c4ccccc34)C(C3CCCCC3)N2C1=O (stereo partly drawn) | > 100 | > 100 | > 100 | 44.9 | 41 | > 100 | > 100 | > 100
24 | COc1cc2nc3n(c(=O)c2cc1OC)-c1ccc([N+](=O)[O-])cc1C3=O | 78.6 | 92.1 | > 100 | > 100 | > 100 | 62.2 | > 100 | > 100
25 | O=C1CCCc2cc3c(cc21)CC1(Cc2ccccc2C1)C3 | 67 | – | 24.4 | 19.3 | 25.7 | – | 20.2 | 8.6
